According to ChEMBL document CHEMBL3593218, “4,6-Substituted-1,3,5-triazin-2(1H)-ones as monocyclic catalytic inhibitors of human DNA topoisomerase IIα targeting the ATP binding site” (Bioorg Med Chem, 2015):

Assays:
[1] = target: T1, DNA topoisomerase 2-alpha (Homo sapiens, UniProt P11388); experiment: Inhibition of human DNA topoisomerase IIalpha using plasmid pNO1 as a substrate after 30 mins
[2] = Lipophilicity, log P of the compound; type: physicochemical; conditions: octanol/water
[3] = target: T1, DNA topoisomerase 2-alpha; experiment: Inhibition of human DNA topoisomerase IIalpha assessed as decatenation of kDNA at 3.9 uM after 90 mins by ethidium bromide staining; parameters: scale not given: the % may be the effect or the level left
[4] = target: T1, DNA topoisomerase 2-alpha; experiment: Inhibition of human DNA topoisomerase IIalpha assessed as reduction in enzyme-catalyzed supercoiling of relaxed circular pBR322 DNA by measuring linear DNA level at 31.5 uM after 60 mins by agarose gel electrophoresis; parameters: scale not given: the % may be the effect or the level left
[5] = target: T1, DNA topoisomerase 2-alpha; experiment: Inhibition of human DNA topoisomerase IIalpha assessed as decatenation of kDNA after 90 mins by ethidium bromide staining
[6] = target: T1, DNA topoisomerase 2-alpha; experiment: Inhibition of human DNA topoisomerase IIalpha assessed as reduction in enzyme-catalyzed supercoiling of relaxed circular pBR322 DNA by measuring linear DNA level at 125 uM after 60 mins by agarose gel electrophoresis in presence of 50 uM of etoposide; parameters: scale not given: the % may be the effect or the level left
[7] = target: T1, DNA topoisomerase 2-alpha; experiment: Inhibition of human DNA topoisomerase IIalpha assessed as decatenation of kDNA at 15.625 uM after 90 mins by ethidium bromide staining; parameters: scale not given: the % may be the effect or the level left
[8] = target: T1, DNA topoisomerase 2-alpha; experiment: Inhibition of human DNA topoisomerase IIalpha assessed as decatenation of kDNA at 500 uM after 90 mins by ethidium bromide staining; parameters: scale not given: the % may be the effect or the level left
[9] = target: T1, DNA topoisomerase 2-alpha; experiment: Inhibition of human DNA topoisomerase IIalpha assessed as decatenation of kDNA at 62.5 uM after 90 mins by ethidium bromide staining; parameters: scale not given: the % may be the effect or the level left
[10] = target: T1, DNA topoisomerase 2-alpha; experiment: Inhibition of human DNA topoisomerase IIalpha assessed as decatenation of kDNA at 31.5 uM after 90 mins by ethidium bromide staining; parameters: scale not given: the % may be the effect or the level left
[11] = target: T1, DNA topoisomerase 2-alpha; experiment: Inhibition of human DNA topoisomerase IIalpha assessed as reduction in enzyme-catalyzed supercoiling of relaxed circular pBR322 DNA by measuring linear DNA level after 60 mins by agarose gel electrophoresis
[12] = target: T1, DNA topoisomerase 2-alpha; experiment: Inhibition of human DNA topoisomerase IIalpha assessed as reduction in enzyme-catalyzed supercoiling of relaxed circular pBR322 DNA by measuring linear DNA level at 125 uM after 60 mins by agarose gel electrophoresis; parameters: scale not given: the % may be the effect or the level left
[13] = target: T1, DNA topoisomerase 2-alpha; experiment: Inhibition of human DNA topoisomerase IIalpha assessed as reduction in enzyme-catalyzed supercoiling of relaxed circular pBR322 DNA by measuring linear DNA level at 500 uM after 60 mins by agarose gel electrophoresis; parameters: scale not given: the % may be the effect or the level left
[14] = target: T1, DNA topoisomerase 2-alpha; experiment: Inhibition of human DNA topoisomerase IIalpha assessed as reduction in enzyme-catalyzed supercoiling of relaxed circular pBR322 DNA by measuring linear DNA level at 3.9 uM after 60 mins by agarose gel electrophoresis in presence of 50 uM of etoposide; parameters: scale not given: the % may be the effect or the level left
[15] = target: T1, DNA topoisomerase 2-alpha; experiment: Inhibition of human DNA topoisomerase IIalpha assessed as decatenation of kDNA at 125 uM after 90 mins by ethidium bromide staining; parameters: scale not given: the % may be the effect or the level left
[16] = target: T1, DNA topoisomerase 2-alpha; experiment: Inhibition of human DNA topoisomerase IIalpha assessed as reduction in enzyme-catalyzed supercoiling of relaxed circular pBR322 DNA by measuring linear DNA level at 500 uM after 60 mins by agarose gel electrophoresis in presence of 50 uM of etoposide; parameters: scale not given: the % may be the effect or the level left
[17] = target: T1, DNA topoisomerase 2-alpha; experiment: Inhibition of human DNA topoisomerase IIalpha assessed as reduction in enzyme-catalyzed supercoiling of relaxed circular pBR322 DNA by measuring linear DNA level at 3.9 uM after 60 mins by agarose gel electrophoresis; parameters: scale not given: the % may be the effect or the level left
[18] = target: T1, DNA topoisomerase 2-alpha; experiment: Inhibition of human DNA topoisomerase IIalpha assessed as reduction in enzyme-catalyzed supercoiling of relaxed circular pBR322 DNA by measuring linear DNA level at 31.5 uM after 60 mins by agarose gel electrophoresis in presence of 50 uM of etoposide; parameters: scale not given: the % may be the effect or the level left

T1 sequence (P11388 whole entry): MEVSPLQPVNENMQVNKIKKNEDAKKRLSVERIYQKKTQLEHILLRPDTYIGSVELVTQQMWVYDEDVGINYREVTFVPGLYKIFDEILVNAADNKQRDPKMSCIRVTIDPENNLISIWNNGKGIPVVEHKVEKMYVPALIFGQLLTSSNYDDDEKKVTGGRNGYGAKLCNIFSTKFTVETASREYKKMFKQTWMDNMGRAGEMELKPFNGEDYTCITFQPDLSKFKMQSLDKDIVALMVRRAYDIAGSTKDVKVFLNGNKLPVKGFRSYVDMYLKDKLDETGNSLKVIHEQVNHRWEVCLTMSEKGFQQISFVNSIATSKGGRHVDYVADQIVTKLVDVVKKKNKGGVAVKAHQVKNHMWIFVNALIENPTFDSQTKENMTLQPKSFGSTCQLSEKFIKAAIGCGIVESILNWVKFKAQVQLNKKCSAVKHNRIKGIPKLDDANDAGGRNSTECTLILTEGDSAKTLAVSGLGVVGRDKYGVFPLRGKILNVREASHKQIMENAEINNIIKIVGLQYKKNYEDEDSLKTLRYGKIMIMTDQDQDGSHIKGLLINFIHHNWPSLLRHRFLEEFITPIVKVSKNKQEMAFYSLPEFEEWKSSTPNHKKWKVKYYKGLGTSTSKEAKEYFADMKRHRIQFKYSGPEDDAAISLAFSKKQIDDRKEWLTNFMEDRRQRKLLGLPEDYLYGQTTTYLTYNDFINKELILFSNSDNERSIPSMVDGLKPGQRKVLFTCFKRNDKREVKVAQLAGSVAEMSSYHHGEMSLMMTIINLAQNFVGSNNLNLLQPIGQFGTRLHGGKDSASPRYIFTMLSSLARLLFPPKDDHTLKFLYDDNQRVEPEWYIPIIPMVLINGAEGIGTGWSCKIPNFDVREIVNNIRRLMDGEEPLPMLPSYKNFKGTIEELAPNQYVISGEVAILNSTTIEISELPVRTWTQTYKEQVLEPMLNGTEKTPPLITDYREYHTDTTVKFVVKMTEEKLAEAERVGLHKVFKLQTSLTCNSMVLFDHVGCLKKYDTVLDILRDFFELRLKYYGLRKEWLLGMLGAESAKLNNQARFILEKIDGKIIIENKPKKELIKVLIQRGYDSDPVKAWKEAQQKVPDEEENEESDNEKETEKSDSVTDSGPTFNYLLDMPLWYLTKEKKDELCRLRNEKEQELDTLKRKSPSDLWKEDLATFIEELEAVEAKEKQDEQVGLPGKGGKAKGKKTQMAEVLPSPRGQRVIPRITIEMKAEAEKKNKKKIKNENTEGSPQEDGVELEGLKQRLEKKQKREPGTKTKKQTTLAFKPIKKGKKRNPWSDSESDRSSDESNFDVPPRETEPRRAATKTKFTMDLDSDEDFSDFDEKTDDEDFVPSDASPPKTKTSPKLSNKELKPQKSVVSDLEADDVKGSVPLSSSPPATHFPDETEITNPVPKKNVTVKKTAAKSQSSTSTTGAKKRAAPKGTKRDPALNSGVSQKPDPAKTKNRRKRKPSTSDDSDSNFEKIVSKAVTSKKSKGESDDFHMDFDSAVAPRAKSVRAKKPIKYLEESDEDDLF

Row | IC50 [1] | SMILES | further results
1 | > 1000 µM | COc1nc(N[C@H](CCC(=O)O)C(=O)O)nc(OC)n1 | –
2 | > 1000 µM | COc1ccccc1CSc1nc(SCc2ccccc2)nc(=O)[nH]1 | –
3 | > 1000 µM | O=c1nc(-c2ccccc2)nc(S)[nH]1 | –
4 | 522 µM | N#Cc1ccccc1CSc1nc(SCc2ccccc2)nc(=O)[nH]1 | –
5 | > 1000 µM | COc1nc(Nc2ccccc2C(=O)N[C@@H](C)C(=O)OCc2ccccc2)nc(N[C@@H](C)C(=O)OCc2ccccc2)n1 | –
6 | 528 µM | N#Cc1cccc(CSc2nc(SCc3ccccc3)nc(=O)[nH]2)c1 | –
7 | > 1000 µM | O=c1nc(-c2cccc([N+](=O)[O-])c2)nc(S)[nH]1 | –
8 | 481 µM | O=c1nc(SCc2ccccc2)nc(SCC2CC2)[nH]1 | –
9 | > 1000 µM | COc1nc(OC)nc(Sc2ccccc2C(=O)O)n1 | –
10 | > 1000 µM | CN(CCO)c1nc(Cl)nc(Nc2ccccc2CCO)n1 | –
11 | 488 µM | O=c1nc(SCc2ccccc2)nc(SCc2cccc([N+](=O)[O-])c2)[nH]1 | –
12 | 486 µM | N#Cc1ccc(CSc2nc(SCc3ccccc3)nc(=O)[nH]2)c(F)c1 | –
13 | 94.1 µM | O=c1nc(SCc2ccccc2)nc(SCc2ccccc2Cl)[nH]1 | logP [2]: 3.3
14 | > 1000 µM | COC(=O)c1ccccc1Nc1nc(Cl)nc(Cl)n1 | –
15 | > 1000 µM | O=c1nc(SCc2ccccc2)nc(SCC2CCC2)[nH]1 | –
16 | 377 µM | O=c1nc(SCc2ccccc2)nc(SCc2ccccc2[N+](=O)[O-])[nH]1 | –
17 | > 1000 µM | COc1ccc(CNc2nc(Cl)nc(N(C)CCO)n2)cc1 | –
18 | > 1000 µM | COC(=O)c1ccccc1Oc1nc(OC)nc(OC)n1 | –
19 | > 1000 µM | O=C(O)CSC1N=C(SCc2ccccc2)NC(=O)N1 (configuration not stated) | –
20 | 485 µM | COc1cccc(CSc2nc(SCc3ccccc3)nc(=O)[nH]2)c1 | –
21 | > 1000 µM | O=c1nc(SCc2ccccc2)nc(SCC2CCCCC2)[nH]1 | –
22 | > 1000 µM | COc1ccc(CNc2nc(Cl)nc(Cl)n2)cc1 | –
23 | > 1000 µM | CC(C)OC(=O)C(C)NC(=O)c1ccc(Nc2nc(Cl)nc(Cl)n2)cc1 (configuration not stated) | –
24 | 54.6 µM | O=c1nc(SCc2ccccc2)nc(SCc2cccc(Cl)c2)[nH]1 | Activity [3]: 87.3%; Activity [4]: 1.2%; inhibition [5]: Dose-dependent effect; Activity [6]: 9.2%; Activity [7]: 18.2%; Activity [8]: 0%; Activity [9]: 6.05%; logP [2]: 3.3; Activity [10]: 33.9%; inhibition [11]: Dose-dependent effect; Activity [12]: 3.5%; Activity [13]: 2.5%; Activity [14]: 34.3%; Activity [15]: 0%; Activity [16]: 5.3%; Activity [17]: 4.4%; Activity [18]: 33.5%
